{
  "source": "patent US12036226B2",
  "about": "“Methods of treating subjects having diabetes with chronic kidney disease” (Poxel SA, priority 2018, dated 2024)",
  "assay": "Phase 1 study of pharmacokinetics and safety of imeglimin in subjects with renal impairment compared to normal renal function",
  "type": "in vivo, human",
  "conditions": "for AUC: read-out: AUC0-τ",
  "protocol": "An open-label, parallel-group, multi-center, multiple oral dose study to investigate the pharmacokinetics of imeglimin in subjects with renal impairment compared to subjects with normal renal function was completed.\nIn this study, a total of 51 subjects received imeglimin at the daily dose of 1000 mg, administered either as 1000 mg QD (once a day) or 500 mg bid (twice a day) during 8 days. […] Twenty-four control subjects with normal renal function were matched to mild and moderate (10 receiving QD and 8 receiving bid regimen) and to severe (6 receiving bid regimen) renal impaired subjects. Measurement of the urine to plasma ratio of creatinine using 24 hours urine sampling was calculated (CLCrea).\nImeglimin was administered in the morning time during 8 consecutive days in the group of subjects receiving 1000 mg once a day and in the morning and evening time during 7 consecutive days followed by a morning administration of 500 mg in the morning time on Day 8 in the group of subjects receiving 500 mg twice a day. Morning administrations on Days 1 and 8 were performed on a fasted state, after a 10 hours overnight fasting and during 4 hours after imeglimin administration.\nInclusion Criteria: For subjects with normal renal functions: CLCrea>80 mL/min based on calculation using 24-hrs sampling on day −2. For subjects with impaired renal function: CLCrea 50 to 80 mL/min for subjects with mild renal impairment, 30 to <50 mL/min for subjects with moderate renal impairment, and <30 mL/min for subjects with severe renal impairment based on calculation using 24-hrs sampling on day −2.\nPharmacokinetic parameters included apparent volume of distribution during the terminal phase following extravascular administration (Vz/F), area under the curve of the plasma concentration as a function of time (AUC0-t), the maximum observed concentration (Cmax), the time to maximum concentration (tmax), the plasma half-life (t1/2), the total body clearance of drug from plasma following extravascular administration (CL/F), and other parameters.\nThe urinary excretion parameters of imeglimin in subjects with differing degrees of renal impairment following QD or bid oral doses of imeglimin on day 8 are summarized in Table 3 and Table 4. Parameters measured include amount of unchanged drug excreted in urine as a function of time (Ae0-t), renal clearance (CLR), and the amount of unchanged drug excreted in urine during one dosing interval (Ae0-τ), and the percentage of administered dose excreted in urine during one dosing interval (fe0-τ).\nFor the evaluation of safety and tolerability of multiple oral doses of 1000 mg imeglimin QD (i.e. a total dose of 8000 mg imeglimin) or 500 mg imeglimin BID (i.e. a total dose of 7500 mg imeglimin), laboratory tests (hematology, clinical chemistry, urinalysis), determination of vital signs, ECG recordings, questioning of AEs and physical examinations were performed. […] The incidence of AEs observed within the course of the study was low. Overall 31 out of 51 subjects reported 54 treatment emergent AEs. Of these, only 15 were judged as likely related to the study drug. The majority (39 AEs) were assessed as unlikely related. Based on these low incidence no clear differences between the dose regimens and between the renal impairment groups can be shown.",
  "key": {"[1]": {"conditions": "500 mg bid oral, Day 8, CKD Stage 2 (mild renal impairment) (N = 4), geometric mean (CV %)"}, "[2]": {"conditions": "500 mg bid oral, Day 8, CKD Stage 3 (moderate renal impairment) (N = 6), geometric mean (CV %)"}, "[3]": {"conditions": "500 mg bid oral, Day 8, CKD Stage 4 (severe renal impairment) (N = 5), geometric mean (CV %)"}, "[4]": {"conditions": "500 mg bid oral, Day 8, Part 1 CKD Stage 2 (mild renal impairment; N = 4), geometric mean"}, "[5]": {"conditions": "500 mg bid oral, Day 8, Part 1 CKD Stage 3 (moderate renal impairment; N = 6), geometric mean"}, "[6]": {"conditions": "500 mg bid oral, Day 8, Part 1 normal renal function (N = 8), geometric mean"}, "[7]": {"conditions": "500 mg bid oral, Day 8, Part 2 CKD Stage 4 (severe renal impairment; N = 5), geometric mean"}, "[8]": {"conditions": "500 mg bid oral, Day 8, Part 2 normal renal function (N = 6), geometric mean"}, "[9]": {"conditions": "500 mg bid oral, Day 8, normal renal function (N = 6), geometric mean (CV %)"}, "[10]": {"conditions": "500 mg bid oral, Day 8, normal renal function (N = 8), geometric mean (CV %)"}, "[11]": {"conditions": "1000 mg QD or 500 mg bid over 8 days, all groups"}, "[12]": {"conditions": "1000 mg QD oral, Day 8, CKD Stage 3 (moderate renal impairment) (N = 6), geometric mean"}, "[13]": {"conditions": "1000 mg QD oral, Day 8, CKD stage 2 (mild renal impairment; N = 5), geometric mean"}, "[14]": {"conditions": "1000 mg QD oral, Day 8, normal renal function (N = 10), geometric mean"}, "[15]": {"conditions": "human, plasma, po, 500 mg, 500 mg bid oral, Day 8, Part 1 CKD Stage 2 (mild renal impairment; N = 4), geometric mean"}, "[16]": {"conditions": "human, plasma, po, 500 mg, 500 mg bid oral, Day 8, Part 1 CKD Stage 3 (moderate renal impairment; N = 6), geometric mean"}},
  "note": "“And” between values parts separate entries of the source, which are not always exact repeats. Equal values may be shown once. Read-outs that look alike come from different tables or passages of the source.",
  "data": [
    {"molecule": "C[C@H]1N=C(N(C)C)N=C(N)N1", "note": "[imeglimin, (6R)—N^2, N^2,6-trimethyl-3,6-dihydro-1,3,5-triazine-2,4-diamine]", "values": [
      {"measurement": "Ae0-t", "setting": "[1]", "value": "404 (16.4) mg"},
      {"measurement": "Ae0-τ", "setting": "[1]", "value": "215 (11.5) mg"},
      {"measurement": "feτ (fraction of dose excreted in urine, 12-hour dosing interval)", "setting": "[1]", "value": "43% and 42.9 (11.5) %"},
      {"measurement": "Ae0-t", "setting": "[2]", "value": "328 (22.6) mg"},
      {"measurement": "Ae0-τ", "setting": "[2]", "value": "199 (29.1) mg"},
      {"measurement": "feτ (fraction of dose excreted in urine, 12-hour dosing interval)", "setting": "[2]", "value": "40% and 39.8 (29.1) %"},
      {"measurement": "Ae0-t", "setting": "[3]", "value": "357 (25.5) mg"},
      {"measurement": "Ae0-τ", "setting": "[3]", "value": "209 (15.6) mg"},
      {"measurement": "feτ (fraction of dose excreted in urine, 12-hour dosing interval)", "setting": "[3]", "value": "42% and 41.8 (15.6) %"},
      {"measurement": "CL/F", "setting": "[4]", "value": 754, "unit": "mL/min"},
      {"measurement": "Cpre", "setting": "[4]", "value": 572, "unit": "ng/mL"},
      {"measurement": "CL/F", "setting": "[5]", "value": 485, "unit": "mL/min"},
      {"measurement": "Cmin", "setting": "[5]", "value": 808, "unit": "ng/mL"},
      {"measurement": "Cpre", "setting": "[5]", "value": 996, "unit": "ng/mL"},
      {"measurement": "CL/F", "setting": "[6]", "value": 1128, "unit": "mL/min"},
      {"measurement": "Cpre", "setting": "[6]", "value": 254, "unit": "ng/mL"},
      {"measurement": "CL/F", "setting": "[7]", "value": 336, "unit": "mL/min"},
      {"measurement": "Cmin", "setting": "[7]", "value": 1211, "unit": "ng/mL"},
      {"measurement": "Cpre", "setting": "[7]", "value": 1335, "unit": "ng/mL"},
      {"measurement": "CL/F", "setting": "[8]", "value": 1195, "unit": "mL/min"},
      {"measurement": "Cmin", "setting": "[8]", "value": 169, "unit": "ng/mL"},
      {"measurement": "Cpre", "setting": "[8]", "value": 209, "unit": "ng/mL"},
      {"measurement": "Ae0-t", "setting": "[9]", "value": "298 (30.6) mg"},
      {"measurement": "Ae0-τ", "setting": "[9]", "value": "229 (25.3) mg"},
      {"measurement": "feτ (fraction of dose excreted in urine, 12-hour dosing interval)", "setting": "[9]", "value": "45.9 (25.3) %"},
      {"measurement": "Ae0-t", "setting": "[10]", "value": "307 (37.7) mg"},
      {"measurement": "Ae0-τ", "setting": "[10]", "value": "222 (22.6) mg"},
      {"measurement": "feτ (fraction of dose excreted in urine, 12-hour dosing interval)", "setting": "[10]", "value": "44.4 (22.6) %"},
      {"measurement": "number of treatment emergent AEs", "setting": "[11]", "value": 54},
      {"measurement": "subjects reporting treatment emergent AEs", "setting": "[11]", "value": "31 out of 51 subjects"},
      {"measurement": "Ae0-t (unchanged drug excreted in urine)", "setting": "[12]", "value": 453, "unit": "mg"},
      {"measurement": "Ae0-τ", "setting": "[12]", "value": 345, "unit": "mg"},
      {"measurement": "CL/F", "setting": "[12]", "value": 573, "unit": "mL/min"},
      {"measurement": "Cpre", "setting": "[12]", "value": 382, "unit": "ng/mL"},
      {"measurement": "feτ (percentage of dose excreted in urine during one dosing interval)", "setting": "[12]", "value": 34.5, "unit": "%"},
      {"measurement": "CL/F", "setting": "[13]", "value": 828, "unit": "mL/min"},
      {"measurement": "Cpre", "setting": "[13]", "value": 181, "unit": "ng/mL"},
      {"measurement": "Ae0-t (unchanged drug excreted in urine)", "setting": "[14]", "value": 460, "unit": "mg"},
      {"measurement": "Ae0-τ", "setting": "[14]", "value": 386, "unit": "mg"},
      {"measurement": "CL/F", "setting": "[14]", "value": 1082, "unit": "mL/min"},
      {"measurement": "Cav", "setting": "[14]", "value": 642, "unit": "ng/mL"},
      {"measurement": "Cpre", "setting": "[14]", "value": 136, "unit": "ng/mL"},
      {"measurement": "feτ (percentage of dose excreted in urine during one dosing interval)", "setting": "[14]", "value": 38.6, "unit": "%"},
      {"measurement": "QRS-, QT intervals and corrected QTc-intervals (Bazett, Fridericia)", "setting": "ECG recordings", "value": "did not reveal any relevant changes"},
      {"measurement": "vital signs", "setting": "following the administration of imeglimin", "value": "did not show any clinically relevant changes"},
      {"measurement": "clinical laboratory parameters", "setting": "human, in vivo", "value": "no significant abnormality observed"},
      {"measurement": "half-life", "setting": "human, plasma, oral, across groups", "value": "13 to 26", "unit": "h"},
      {"measurement": "Tmax", "setting": "human, plasma, oral, post-dose, across renal function groups and time, read-out: Median Tmax", "value": "3.5 to 5", "unit": "h"},
      {"measurement": "Cmax", "setting": "[15]", "value": 1320, "unit": "ng/mL"},
      {"measurement": "half-life", "setting": "[15]", "value": 26.1, "unit": "h"},
      {"measurement": "AUC", "setting": "[15]", "value": 11100, "unit": "ng·h/mL"},
      {"measurement": "concentration at 8 day", "setting": "human, plasma, po, 500 mg, 500 mg bid oral, Day 8, Part 1 CKD Stage 2 (mild renal impairment; N = 4), geometric mean, read-out: Cav", "value": 921, "unit": "ng/mL"},
      {"measurement": "concentration at 8 day", "setting": "human, plasma, po, 500 mg, 500 mg bid oral, Day 8, Part 1 CKD Stage 2 (mild renal impairment; N = 4), geometric mean, read-out: Cmin", "value": 459, "unit": "ng/mL"},
      {"measurement": "Vd/F", "setting": "human, plasma, po, 500 mg, 500 mg bid oral, Day 8, Part 1 CKD Stage 2 (mild renal impairment; N = 4), geometric mean, read-out: Vz/F", "value": 1700, "unit": "L"},
      {"measurement": "Tmax", "setting": "human, plasma, po, 500 mg, 500 mg bid oral, Day 8, Part 1 CKD Stage 2 (mild renal impairment; N = 4), median, read-out: tmax", "value": 4, "unit": "h"},
      {"measurement": "Cmax", "setting": "[16]", "value": 2000, "unit": "ng/mL"},
      {"measurement": "half-life", "setting": "[16]", "value": 21.9, "unit": "h"},
      {"measurement": "AUC", "setting": "[16]", "value": 17200, "unit": "ng·h/mL"}
    ]}
  ]
}
